Values of other authors as cited in US20080176830A1, “Compounds, Compositions, and Methods” (priority 2005, published 2008).

Test system: A549 cells
Details: data provided by National Cancer Institute

Row | Structure (SMILES) | GI50 [nM]
1 | COc1cccc2c1C(=O)c1c(O)c3c(c(O)c1C2=O)C[C@@](O)(C(=O)CO)C[C@@H]3O[C@H]1C[C@H](N)[C@H](O)[C@H](C)O1 [doxorubicin] | 63
2 | O=c1[nH]cc(F)c(=O)[nH]1 [5-fluorouracil] | 1000
3 | NC(=O)NO [hydroxyurea] | 500000
4 | CC(=O)O[C@H]1C(=O)[C@@]2(C)[C@H]([C@H](OC(=O)c3ccccc3)[C@]3(O)C[C@H](OC(=O)[C@H](O)[C@@H](NC(=O)c4ccccc4)c4ccccc4)C(C)=C1C3(C)C)[C@]1(OC(C)=O)CO[C@@H]1C[C@@H]2O [paclitaxel] | 4
